# Experimental data from ChEMBL document CHEMBL5465560, “Selectivity Literature for EUbOPEN Chemogenomic Library” (2024).
# How the values were obtained:
# [1] = molecular target: Cyclin-dependent kinase 13 (Homo sapiens, UniProt Q14004); assay: Selectivity interaction (KinomeScan (DiscoverX)) EUB0000229b CDK13; conditions: at 10 µM
# [2] = molecular target: Phosphatidylinositol 4,5-bisphosphate 3-kinase catalytic subunit gamma isoform (Homo sapiens) (UniProt P48736); assay: Selectivity interaction (KinomeScan (DiscoverX)) EUB0001079a PIK3CG; conditions: at 1 µM
# [3] = molecular target: Dual specificity protein kinase CLK4 (Homo sapiens, UniProt Q9HAZ1); assay: Selectivity interaction (KinomeScan (DiscoverX)) EUB0000595a CLK4; conditions: at 10 µM
# [4] = molecular target: Protein kinase C eta type (Homo sapiens) (UniProt P24723); assay: Selectivity interaction (KinomeScan (DiscoverX)) EUB0000092b PRKCH; conditions: at 10 µM
# [5] = molecular target: T1, Serine/threonine-protein kinase PLK4 (Homo sapiens) (UniProt O00444); conditions: at 10 µM
# T1 sequence (whole entry): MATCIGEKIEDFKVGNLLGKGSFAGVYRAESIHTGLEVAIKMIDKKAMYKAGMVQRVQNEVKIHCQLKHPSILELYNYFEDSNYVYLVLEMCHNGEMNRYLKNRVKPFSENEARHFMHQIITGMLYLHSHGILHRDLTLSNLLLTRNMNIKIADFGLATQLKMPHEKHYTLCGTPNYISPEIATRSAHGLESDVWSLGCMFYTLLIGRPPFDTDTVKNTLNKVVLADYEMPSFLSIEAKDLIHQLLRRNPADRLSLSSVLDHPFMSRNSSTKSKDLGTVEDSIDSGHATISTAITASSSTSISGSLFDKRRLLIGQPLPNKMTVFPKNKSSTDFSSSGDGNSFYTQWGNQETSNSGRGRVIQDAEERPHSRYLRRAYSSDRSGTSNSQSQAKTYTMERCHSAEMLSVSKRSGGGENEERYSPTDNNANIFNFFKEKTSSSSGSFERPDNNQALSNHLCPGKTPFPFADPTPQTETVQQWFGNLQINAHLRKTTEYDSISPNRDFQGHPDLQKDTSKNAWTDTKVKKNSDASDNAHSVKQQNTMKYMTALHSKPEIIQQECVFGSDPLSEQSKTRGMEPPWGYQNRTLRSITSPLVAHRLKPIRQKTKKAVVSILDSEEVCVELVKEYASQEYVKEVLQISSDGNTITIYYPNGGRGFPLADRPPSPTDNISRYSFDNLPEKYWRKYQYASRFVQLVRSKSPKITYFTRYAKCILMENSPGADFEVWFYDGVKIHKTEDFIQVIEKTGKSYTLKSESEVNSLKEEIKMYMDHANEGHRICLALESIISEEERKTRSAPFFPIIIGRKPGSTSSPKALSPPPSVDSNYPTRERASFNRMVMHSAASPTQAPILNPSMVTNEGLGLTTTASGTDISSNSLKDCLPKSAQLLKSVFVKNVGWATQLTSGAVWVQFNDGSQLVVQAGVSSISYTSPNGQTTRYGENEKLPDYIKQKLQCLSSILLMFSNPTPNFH
# [6] = molecular target: T2, Serine/threonine-protein kinase D2 (Homo sapiens) (UniProt Q9BZL6); assay: Selectivity interaction (Upstate Kinase Profiler service (Millipore)) EUB0000056c PRKD2; conditions: at 1 µM
# T2 sequence (whole entry): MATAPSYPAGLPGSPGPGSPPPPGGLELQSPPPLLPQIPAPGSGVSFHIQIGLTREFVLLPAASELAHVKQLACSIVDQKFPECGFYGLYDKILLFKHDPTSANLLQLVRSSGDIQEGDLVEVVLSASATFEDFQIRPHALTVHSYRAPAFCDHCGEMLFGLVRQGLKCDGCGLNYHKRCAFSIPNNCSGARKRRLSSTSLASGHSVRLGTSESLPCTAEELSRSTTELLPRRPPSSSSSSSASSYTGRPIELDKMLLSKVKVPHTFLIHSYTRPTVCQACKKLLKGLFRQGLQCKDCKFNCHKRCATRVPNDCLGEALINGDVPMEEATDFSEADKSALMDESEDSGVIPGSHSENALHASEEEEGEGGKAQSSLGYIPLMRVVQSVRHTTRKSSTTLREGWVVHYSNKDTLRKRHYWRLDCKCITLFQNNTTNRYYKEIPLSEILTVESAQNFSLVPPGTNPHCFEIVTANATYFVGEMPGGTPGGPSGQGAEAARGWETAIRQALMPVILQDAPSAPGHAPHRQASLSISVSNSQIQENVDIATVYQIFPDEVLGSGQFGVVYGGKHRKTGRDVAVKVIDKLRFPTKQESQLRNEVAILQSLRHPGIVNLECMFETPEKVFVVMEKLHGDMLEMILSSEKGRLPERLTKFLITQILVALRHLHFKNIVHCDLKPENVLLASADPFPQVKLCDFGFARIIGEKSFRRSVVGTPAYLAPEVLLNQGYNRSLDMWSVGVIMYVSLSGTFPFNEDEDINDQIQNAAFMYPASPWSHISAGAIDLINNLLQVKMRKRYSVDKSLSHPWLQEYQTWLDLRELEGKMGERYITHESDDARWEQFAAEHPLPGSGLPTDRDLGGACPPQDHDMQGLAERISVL
# [7] = molecular target: MAP kinase-interacting serine/threonine-protein kinase 1 (Homo sapiens) (UniProt Q9BUB5); assay: Selectivity interaction (Kinase panel (Z-LYTE Assay)) EUB0001632a MKNK1; conditions: at 10 µM
# MAP kinase-interacting serine/threonine-protein kinase 1 (Homo sapiens), sequence (Q9BUB5 whole entry, looked up): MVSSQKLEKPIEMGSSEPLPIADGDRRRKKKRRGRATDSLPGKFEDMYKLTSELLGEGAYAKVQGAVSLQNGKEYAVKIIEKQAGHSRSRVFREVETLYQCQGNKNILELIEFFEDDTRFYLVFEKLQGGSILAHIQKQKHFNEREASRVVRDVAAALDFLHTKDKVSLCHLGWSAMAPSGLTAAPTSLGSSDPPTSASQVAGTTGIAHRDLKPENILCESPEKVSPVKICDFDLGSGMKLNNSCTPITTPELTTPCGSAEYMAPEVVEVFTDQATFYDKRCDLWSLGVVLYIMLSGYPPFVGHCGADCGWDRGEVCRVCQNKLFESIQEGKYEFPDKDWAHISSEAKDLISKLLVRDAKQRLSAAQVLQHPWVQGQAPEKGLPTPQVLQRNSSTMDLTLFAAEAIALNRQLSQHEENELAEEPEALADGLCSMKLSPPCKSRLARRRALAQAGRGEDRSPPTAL
# Protein kinase C eta type (Homo sapiens), sequence (P24723 whole entry): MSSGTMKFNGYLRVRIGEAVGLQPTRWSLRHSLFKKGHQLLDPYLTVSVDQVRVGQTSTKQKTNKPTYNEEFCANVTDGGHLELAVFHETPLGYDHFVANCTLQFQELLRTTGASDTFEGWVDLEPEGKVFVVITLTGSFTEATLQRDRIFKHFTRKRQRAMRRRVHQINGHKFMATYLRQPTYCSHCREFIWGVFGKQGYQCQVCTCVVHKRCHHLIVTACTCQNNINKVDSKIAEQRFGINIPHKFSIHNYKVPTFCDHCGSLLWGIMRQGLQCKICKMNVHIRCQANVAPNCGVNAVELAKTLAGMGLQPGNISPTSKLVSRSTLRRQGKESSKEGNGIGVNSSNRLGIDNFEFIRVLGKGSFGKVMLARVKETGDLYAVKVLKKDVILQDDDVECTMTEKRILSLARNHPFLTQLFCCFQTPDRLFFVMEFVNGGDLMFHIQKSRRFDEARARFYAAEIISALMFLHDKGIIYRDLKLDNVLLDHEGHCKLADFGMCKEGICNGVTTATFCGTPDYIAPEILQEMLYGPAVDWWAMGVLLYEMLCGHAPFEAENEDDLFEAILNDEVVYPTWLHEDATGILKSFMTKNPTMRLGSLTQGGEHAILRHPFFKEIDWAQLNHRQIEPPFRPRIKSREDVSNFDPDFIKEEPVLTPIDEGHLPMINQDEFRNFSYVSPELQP
# Cyclin-dependent kinase 13, sequence (Q14004 whole entry, looked up, canonical isoform): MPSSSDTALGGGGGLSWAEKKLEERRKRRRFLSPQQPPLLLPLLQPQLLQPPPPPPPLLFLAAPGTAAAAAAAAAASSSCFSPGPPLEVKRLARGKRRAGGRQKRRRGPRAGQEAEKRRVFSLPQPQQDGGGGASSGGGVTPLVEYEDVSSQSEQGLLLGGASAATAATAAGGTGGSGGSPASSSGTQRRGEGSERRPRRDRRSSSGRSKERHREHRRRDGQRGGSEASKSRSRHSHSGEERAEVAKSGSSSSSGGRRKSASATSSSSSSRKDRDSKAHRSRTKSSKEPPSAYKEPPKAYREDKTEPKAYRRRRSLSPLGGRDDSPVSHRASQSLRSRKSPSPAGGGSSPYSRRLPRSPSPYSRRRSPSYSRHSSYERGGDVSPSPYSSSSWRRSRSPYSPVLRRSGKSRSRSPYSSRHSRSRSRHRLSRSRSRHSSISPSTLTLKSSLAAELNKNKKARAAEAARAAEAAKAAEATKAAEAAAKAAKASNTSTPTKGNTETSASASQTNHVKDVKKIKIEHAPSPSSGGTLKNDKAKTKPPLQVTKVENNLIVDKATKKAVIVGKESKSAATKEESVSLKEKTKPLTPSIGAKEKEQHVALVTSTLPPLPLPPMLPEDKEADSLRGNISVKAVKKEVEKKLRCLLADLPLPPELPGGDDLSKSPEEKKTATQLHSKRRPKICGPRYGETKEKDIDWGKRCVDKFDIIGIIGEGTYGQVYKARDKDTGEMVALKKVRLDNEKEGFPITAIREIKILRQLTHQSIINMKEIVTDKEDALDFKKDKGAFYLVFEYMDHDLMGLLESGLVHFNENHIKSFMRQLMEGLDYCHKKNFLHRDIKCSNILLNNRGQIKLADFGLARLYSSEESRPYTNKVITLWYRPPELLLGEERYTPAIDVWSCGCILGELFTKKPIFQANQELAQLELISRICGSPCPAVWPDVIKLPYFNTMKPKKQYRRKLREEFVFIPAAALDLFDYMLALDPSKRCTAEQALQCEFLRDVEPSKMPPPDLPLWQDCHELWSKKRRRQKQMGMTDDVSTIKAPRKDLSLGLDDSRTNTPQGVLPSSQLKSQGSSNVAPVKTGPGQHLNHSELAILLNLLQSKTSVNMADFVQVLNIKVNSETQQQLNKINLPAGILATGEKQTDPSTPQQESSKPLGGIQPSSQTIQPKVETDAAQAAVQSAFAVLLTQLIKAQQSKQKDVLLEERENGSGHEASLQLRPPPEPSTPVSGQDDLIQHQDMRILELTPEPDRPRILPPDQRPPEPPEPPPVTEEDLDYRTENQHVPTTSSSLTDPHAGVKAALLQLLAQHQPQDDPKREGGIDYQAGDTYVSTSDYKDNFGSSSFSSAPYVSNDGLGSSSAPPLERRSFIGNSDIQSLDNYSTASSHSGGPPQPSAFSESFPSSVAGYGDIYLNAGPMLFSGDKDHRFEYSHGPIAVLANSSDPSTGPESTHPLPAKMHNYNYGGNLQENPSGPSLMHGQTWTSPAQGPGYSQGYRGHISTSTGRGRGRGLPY
# Dual specificity protein kinase CLK4, sequence (Q9HAZ1 whole entry, looked up): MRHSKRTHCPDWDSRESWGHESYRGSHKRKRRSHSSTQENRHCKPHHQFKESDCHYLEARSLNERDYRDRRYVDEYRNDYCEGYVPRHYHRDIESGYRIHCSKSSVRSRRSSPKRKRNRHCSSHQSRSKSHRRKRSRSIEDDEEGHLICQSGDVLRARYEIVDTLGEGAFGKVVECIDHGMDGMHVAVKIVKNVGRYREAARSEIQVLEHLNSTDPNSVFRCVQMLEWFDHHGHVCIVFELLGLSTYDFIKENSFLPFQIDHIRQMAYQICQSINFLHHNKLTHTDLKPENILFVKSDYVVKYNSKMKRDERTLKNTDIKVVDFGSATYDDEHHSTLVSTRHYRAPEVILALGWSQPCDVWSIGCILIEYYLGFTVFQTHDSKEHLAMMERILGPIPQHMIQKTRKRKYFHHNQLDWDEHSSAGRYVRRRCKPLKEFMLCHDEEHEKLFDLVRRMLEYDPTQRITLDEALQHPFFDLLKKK
# Phosphatidylinositol 4,5-bisphosphate 3-kinase catalytic subunit gamma isoform (Homo sapiens), sequence (P48736 whole entry, looked up, canonical isoform): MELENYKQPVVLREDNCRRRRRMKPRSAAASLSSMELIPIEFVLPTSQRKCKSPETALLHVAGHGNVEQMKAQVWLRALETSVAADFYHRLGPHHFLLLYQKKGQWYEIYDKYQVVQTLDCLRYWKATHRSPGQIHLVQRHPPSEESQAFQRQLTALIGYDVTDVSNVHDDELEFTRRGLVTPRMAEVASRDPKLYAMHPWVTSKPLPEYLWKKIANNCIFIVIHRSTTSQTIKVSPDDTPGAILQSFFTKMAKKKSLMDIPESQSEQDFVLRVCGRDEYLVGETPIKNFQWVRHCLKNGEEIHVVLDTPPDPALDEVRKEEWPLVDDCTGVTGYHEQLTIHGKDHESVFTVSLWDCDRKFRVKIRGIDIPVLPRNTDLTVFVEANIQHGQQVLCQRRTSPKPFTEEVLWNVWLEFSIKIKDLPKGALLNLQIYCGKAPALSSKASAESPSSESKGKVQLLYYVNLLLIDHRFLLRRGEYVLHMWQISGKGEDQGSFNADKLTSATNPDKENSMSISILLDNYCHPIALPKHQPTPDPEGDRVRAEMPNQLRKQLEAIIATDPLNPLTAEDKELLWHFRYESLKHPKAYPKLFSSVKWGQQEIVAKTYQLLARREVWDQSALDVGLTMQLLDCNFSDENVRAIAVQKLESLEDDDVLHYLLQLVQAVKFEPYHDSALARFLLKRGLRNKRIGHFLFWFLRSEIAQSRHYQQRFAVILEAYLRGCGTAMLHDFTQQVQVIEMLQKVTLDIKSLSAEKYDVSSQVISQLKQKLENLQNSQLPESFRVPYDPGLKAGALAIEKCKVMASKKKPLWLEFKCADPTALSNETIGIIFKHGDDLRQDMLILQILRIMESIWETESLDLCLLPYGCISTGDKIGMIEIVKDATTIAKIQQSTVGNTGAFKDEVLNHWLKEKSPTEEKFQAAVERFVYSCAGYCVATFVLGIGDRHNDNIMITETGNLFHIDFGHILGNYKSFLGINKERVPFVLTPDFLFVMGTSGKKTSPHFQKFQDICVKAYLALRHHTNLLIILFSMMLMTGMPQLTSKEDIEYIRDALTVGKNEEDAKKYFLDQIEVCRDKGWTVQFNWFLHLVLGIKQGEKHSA
smiles,measurement,setting,value
COc1cc(N(C)c2ccnc3ccc(C(F)(F)F)cc23)cc(OC)c1OC,% binding,[1],88%
Nc1cnc(N2CCc3cc(S(=O)(=O)Nc4c(F)cc(Cl)cc4F)cc(N4CCCC4=O)c32)nc1 [TP-020n],% of control,[2],81%
COCC(=O)NC/C=C/c1ccc2ncnc(Nc3ccc(Oc4ccc(C)nc4)c(C)c3)c2c1 [CP-724714],% of control,[3],100%
CCC(=O)N1CCN(c2ccc(-n3c(=O)ccc4cnc5ccc(-c6cnc7ccccc7c6)cc5c43)cc2C(F)(F)F)CC1,% of control,[4],92%
Cc1cc([C@@H](C)Nc2ccccc2C(=O)O)c2nc(N3CCOCC3)cc(=O)n2c1 [AZD-6482],% of control,[5],100%
Cc1ccc(-c2ccc3c(ccc4sc5c(c43)NC[C@@H](C)NC5=O)n2)cn1,% of inhibition,[6],-9%
Cn1cc(-n2cnc3c(NCc4nc5cc(Cl)c(Cl)cc5[nH]4)nc(N4CCOCC4)nc32)cn1,% of control,[7],2.99%
